# Measurements: ChEMBL document CHEMBL4346695, “Thiophenol-formaldehyde triazole causes apoptosis induction in ovary cancer cells and prevents tumor growth formation in mice model” (2019)
# The source made the active and inactive calls. No cut-off for these calls is given here.
# Legend:
# [1] = test system: Caov-3 cell line; experiment: Induction of apoptosis in human Caov3 cells assessed as formation of apoptotic nuclei at 2.0 uM incubated for 48 hrs by Hoechst 33342 staining based fluorescent microscopic method; assay type: functional, cell-based
# [2] = test system: Caov-3 cell line; experiment: Growth inhibition of human Caov3 cells incubated for 48 hrs by MTT assay; assay type: functional, cell-based
# [3] = organism: Homo sapiens; experiment: Growth inhibition of human ES2 cells incubated for 48 hrs by MTT assay; assay type: functional
# [4] = test system: Caov-4; experiment: Growth inhibition of human Caov4 cells incubated for 48 hrs by MTT assay; assay type: functional, cell-based
# [5] = test system: Caov-3 cell line; experiment: Growth inhibition of human Caov3 cells at 0.5 uM incubated for 48 hrs by MTT assay; assay type: functional, cell-based
# [6] = organism: Homo sapiens; experiment: Growth inhibition of human ES2 cells at 0.5 uM incubated for 48 hrs by MTT assay; assay type: functional
# [7] = test system: Caov-4; experiment: Growth inhibition of human Caov4 cells at 0.5 uM incubated for 48 hrs by MTT assay; assay type: functional, cell-based
# [8] = test system: Caov-3 cell line; experiment: Growth inhibition of human Caov3 cells at 2 uM incubated for 48 hrs by MTT assay relative to control; assay type: functional; conditions: Caov-3, 48 h, read-out: GI
# [9] = test system: Caov-4; experiment: Growth inhibition of human Caov4 cells at 2 uM incubated for 48 hrs by MTT assay relative to control; assay type: functional; conditions: Caov-4, 48 h, read-out: GI
# [10] = Growth inhibition of human ES2 cells at 2 uM incubated for 48 hrs by MTT assay relative to control; assay type: functional; conditions: ES-2, 48 h, read-out: GI
# [11] = test system: Caov-3 cell line; experiment: Growth inhibition of human Caov3 cells at 0.25 uM incubated for 48 hrs by MTT assay; assay type: functional, cell-based
# [12] = organism: Homo sapiens; experiment: Growth inhibition of human ES2 cells at 0.25 uM incubated for 48 hrs by MTT assay; assay type: functional
# [13] = test system: Caov-4; experiment: Growth inhibition of human Caov4 cells at 0.25 uM incubated for 48 hrs by MTT assay; assay type: functional, cell-based
# [14] = test system: Caov-3 cell line; experiment: Induction of apoptosis in human Caov3 cells at 0.25 to 2.0 uM incubated for 48 hrs by Hoechst 33342 staining based fluorescent microscopic method; assay type: functional, cell-based
# [15] = test system: Caov-3 cell line; experiment: Induction of apoptosis in human Caov3 cells assessed as formation of apoptotic nuclei at 0.25 uM incubated for 48 hrs by Hoechst 33342 staining based fluorescent microscopic method relative to control; assay type: functional
# [16] = test system: Caov-3 cell line; experiment: Induction of apoptosis in human Caov3 cells assessed as formation of apoptotic nuclei at 0.5 uM incubated for 48 hrs by Hoechst 33342 staining based fluorescent microscopic method relative to control; assay type: functional
# [17] = test system: Caov-3 cell line; experiment: Induction of apoptosis in human Caov3 cells assessed as formation of apoptotic nuclei at 1.0 uM incubated for 48 hrs by Hoechst 33342 staining based fluorescent microscopic method relative to control; assay type: functional
# [18] = test system: Caov-3 cell line; experiment: Induction of apoptosis in human Caov3 cells assessed as formation of apoptotic nuclei at 1.5 uM incubated for 48 hrs by Hoechst 33342 staining based fluorescent microscopic method relative to control; assay type: functional
# [19] = test system: Caov-3 cell line; experiment: Induction of apoptosis in human Caov3 cells assessed as formation of apoptotic nuclei at 2.0 uM incubated for 48 hrs by Hoechst 33342 staining based fluorescent microscopic method relative to control; assay type: functional
# [20] = test system: Caov-3 cell line; experiment: Induction of Cell cycle arrest in human Caov3 cells assessed as accumulation at G0/G1 phase at 1 uM incubated for 48 hrs by propidium iodide staining based flow cytometric analysis (reference value: 57.77%); assay type: functional
# [21] = test system: Caov-3 cell line; experiment: Induction of Cell cycle arrest in human Caov3 cells assessed as accumulation at S phase at 1 uM incubated for 48 hrs by propidium iodide staining based flow cytometric analysis (reference value: 18.89%); assay type: functional
# [22] = test system: Caov-3 cell line; experiment: Induction of Cell cycle arrest in human Caov3 cells assessed as accumulation at G2/M phase at 1 uM incubated for 48 hrs by propidium iodide staining based flow cytometric analysis (reference value: 22.68%); assay type: functional
# [23] = test system: Caov-3 cell line; experiment: Induction of Cell cycle arrest in human Caov3 cells assessed as accumulation at G0/G1 phase at 1.5 uM incubated for 48 hrs by propidium iodide staining based flow cytometric analysis (reference value: 57.77%); assay type: functional
# [24] = test system: Caov-3 cell line; experiment: Induction of Cell cycle arrest in human Caov3 cells assessed as accumulation at S phase at 1.5 uM incubated for 48 hrs by propidium iodide staining based flow cytometric analysis (reference value: 18.89%); assay type: functional
# [25] = test system: Caov-3 cell line; experiment: Induction of Cell cycle arrest in human Caov3 cells assessed as accumulation at G2/M phase at 1.5 uM incubated for 48 hrs by propidium iodide staining based flow cytometric analysis (reference value: 22.68%); assay type: functional
# [26] = test system: Caov-3 cell line; experiment: Induction of Cell cycle arrest in human Caov3 cells assessed as accumulation at G0/G1 phase at 2 uM incubated for 48 hrs by propidium iodide staining based flow cytometric analysis (reference value: 57.77%); assay type: functional
# [27] = test system: Caov-3 cell line; experiment: Induction of Cell cycle arrest in human Caov3 cells assessed as accumulation at S phase at 2 uM incubated for 48 hrs by propidium iodide staining based flow cytometric analysis (reference value: 18.89%); assay type: functional
# [28] = test system: Caov-3 cell line; experiment: Induction of Cell cycle arrest in human Caov3 cells assessed as accumulation at G2/M phase at 2 uM incubated for 48 hrs by propidium iodide staining based flow cytometric analysis (reference value: 22.68%); assay type: functional
# [29] = test system: Caov-3 cell line; experiment: Antiinvasive activity in human Caov3 cells at 0.25 uM incubated for 48 hrs using hematoxylin by microscopy-based transwell assay; assay type: functional, cell-based
# [30] = test system: Caov-3 cell line; experiment: Antiinvasive activity in human Caov3 cells at 0.5 uM incubated for 48 hrs using hematoxylin by microscopy-based transwell assay relative to control; assay type: functional
# [31] = test system: Caov-3 cell line; experiment: Antiinvasive activity in human Caov3 cells at 1.0 uM incubated for 48 hrs using hematoxylin by microscopy-based transwell assay relative to control; assay type: functional
smiles,measurement,setting,value
Fc1ccccc1-n1cc(COCc2ccccc2S)nn1,Activity,[1],Active
same,growth inhibition (GI),[2],Dose-dependent effect
same,growth inhibition (GI),[3],Dose-dependent effect
same,growth inhibition (GI),[4],Dose-dependent effect
same,growth inhibition (GI),[5],Active
same,growth inhibition (GI),[6],Active
same,growth inhibition (GI),[7],Active
same,inhibition of growth at 2 µM,[8],27%
same,inhibition of growth at 2 µM,[9],26%
same,inhibition of growth at 2 µM,[10],29%
same,growth inhibition (GI),[11],inactive
same,growth inhibition (GI),[12],inactive
same,growth inhibition (GI),[13],inactive
same,Activity,[14],Active
same,Activity,[15],1.26%
same,Activity,[16],8.67%
same,Activity,[17],21.54%
same,Activity,[18],45.89%
same,Activity,[19],62.53%
same,Activity,[20],61.63%
same,Activity,[21],16.23%
same,Activity,[22],21.19%
same,Activity,[23],64.57%
same,Activity,[24],14.61%
same,Activity,[25],20.07%
same,Activity,[26],69.54%
same,Activity,[27],11.48%
same,Activity,[28],18.08%
same,Activity,[29],inactive
same,Activity,[30],84.54%
same,Activity,[31],67.76%
